US10925858B2, “S-nitrosoglutathione (GSNO) and GSNO reductase inhibitors for use in therapy” (MUSC FOUNDATION FOR RESEARCH DEVELOPMENT, priority 2017, dated 2021)

How the values were obtained:
BBB leakage = assay: Evan's blue extravasation assay (BBB leakage) in EAE mice; assay type: in vivo, C57BL/6J mice; conditions: GSNO 1 mg/kg/day or FeTPPS 30 mg/kg/day i.p.
Description: EAE was induced as described previously (Nath et al., 2009). Animal procedures were approved by the institutional animal care and use committee of MUSC (AR #1644). Briefly, female C57BL/6J mice of 8-12 weeks of age weighing 18-22 g (The Jackson Laboratory, Bar Harbor, Me., USA) were randomly divided into four groups: 1) EAE animals treated with vehicle (EAE; n=8), 2) EAE with GSNO (1 mg/kg body weight per day; i.p.) treatment (EAE+GSNO; n=12), 3) EAE with FeTPPS (30 mg/kg body weight per day; i.p.) treatment (EAE+FeTPPS; n=8), 4) control with vehicle (Ctrl; n=8). The group size was determined by power analysis based on our previous data (Nadi et al., 2009). Then, the mice were immunized subcutaneously in the flank regions with MOG35-55 peptide (MOG; 200 ug; Peptide International) emulsified (1:1) in 100 ul complete Freund's adjuvant (CFA) CHI day 0 and day 7. […] Clinical signs of EAE were scored in animal facility in a blinded fashion to experimenter between 2 and 4 pm daily by examiners blinded to experimental treatments using the following scale: 0=no clinical signs of disease; 1=limp tail or waddling gait with tail tonicity; 2=waddling gait with limp tail (ataxia); 2.5=ataxia with partial limb paralysis; 3=full paralysis of one limb; 3.5=full paralysis of one limb with partial paralysis of second limb; 4=full paralysis of two limbs; 4.5=moribund stage; 5=death. […]

[1] = tested on: protein associated S-nitrosothiols; assay: Biotin-switch analysis of protein associated S-nitrosothiols in spleens of EAE mice; assay type: in vivo, C57BL/6 mice; conditions: vs control and EAE mice
Description: Female C57BL/6 mice of 8-12 weeks of age, purchased from Jackson Laboratory, were provided with food and water ad libitum and were kept in pathogen free animal care facility of Medical University of South Carolina (MUSC) throughout the study. All procedures were conducted in accordance with accepted standards of humane care as approved by the Institutional Animal Care and Use Committee (Approved number: AR #1644). EAE was induced as described previously (Nath et al., 2009). Briefly, mice were immunized subcutaneously in the flank regions with MOG35-55 peptide (MOG; 200 μg; Peptide International) emulsified (1:1) in 100 ul complete Freund's adjuvant (CFA) on day 0 and day 7. Additionally, 300 ng of Pertussis toxin (Sigma-Aldrich, St. Louis, Mo.) was given on day 0 and day 2 by i.p. injection. […] Clinical signs of EAE were scored by examiners blinded to experimental treatments using the following scale: 0=no clinical signs of disease; 1=piloerection and sluggish; 2=limp tail (ataxia); 2.5=ataxia with partial hind limb paralysis; 3=full paralysis of hind limb; 3.5=full paralysis of hind limb with paralysis of one fore limb; 4=full paralysis of two limbs; 4.5=moribund stage; 5=death. […]
Protein S-Nitrosylation was detected using the biotin-switch method with slight modification as described in our previous study (Kim et al., 2014). […]

Row | Compound | extravasation of Evan's blue dye into the CNS (BBB leakage) | spleen levels of protein-associated S-nitrosothiols [1]
1 | Cl.O=S(=O)([O-])c1ccc(-c2c3nc(c(-c4ccc(S(=O)(=O)O)cc4)c4ccc([nH]4)c(-c4ccc(S(=O)(=O)O)cc4)c4nc(c(-c5ccc(S(=O)(=O)O)cc5)c5ccc2[nH]5)C=C4)C=C3)cc1.[Fe] [FeTPPS, 5,10,15,20-Tetrakis(4-sulfonatophenyl)porphyrinato Iron (III), Cl, reference compound] | significantly decreased | 
2 | N[C@@H](CCC(=O)N[C@@H](CSN=O)C(=O)NCC(=O)O)C(=O)O [GSNO, S-nitrosoglutathione] | significantly decreased | increased
3 | Cc1cc(C(N)=O)ccc1-n1c(CCC(=O)O)ccc1-c1ccc(-n2ccnc2)cc1 [N6022, reference compound] |  | increased
